Test results published in article PMC10221074, “Functional Profiling of the A-Family of Venom Peptides from the Wolf Spider Lycosa shansia” (Toxins, 2023).

Assays:
G. mellonella larvae = assay: Insecticidal activity by injection into larvae; assay type: in vivo, Galleria mellonella; conditions: 50 ng peptide injected, 3 cohorts of 10 larvae, survival monitored for 5 days
Method: Insecticidal activity was determined using fourth and fifth instar G. mellonella larvae (L4/L5) obtained from Fauna Topics Zoobedarf Zucht und Handels GmbH (Marbach am Neckar, Germany). Because spider venom is injected via chelicerae, we opted for an injection-based assay to reflect the natural process of envenomation as described earlier. The peptides were dissolved in a 1:1 mixture of DMSO and water to a final concentration of 10 mmol/L. We injected 50 ng of each peptide into the pseudopodium using Omnican-F, 0.30 × 12 mm/G 30 × 1/2”, a 1 mL syringe adjusted to a WPI manual microsyringe injector setup. Injections with water, DMSO/water (1:1) and ethanol (90%) were used as controls, alongside untreated specimens. Insecticidal activity screenings were performed in cohorts of 10 larvae with 3 replicates (30 specimens per treatment or control). […] Survival was monitored every 24 h for 5 days. Mortality was calculated based on the ratio of dead to injected specimens.

[1] = test system: Micrococcus luteus DSM 20030; assay: Antibacterial growth assay (OD600); conditions: for Antibacterial activity (in words): M. luteus DSM 20030, growth after 48 h; for Bacterial growth relative to medium, M. luteus, replicate 1 / Bacterial growth relative to medium, M. luteus, replicate 2 / Bacterial growth relative to medium, M. luteus, replicate 3: OD600, medium = 100, MH II broth, 37 °C, peptide 200 µM mixed 50 µL + 50 µL with bacteria, Figure 7: 48 h; for Bacterial growth relative to medium, M. luteus, replicate 1: replicate column 1; for Bacterial growth relative to medium, M. luteus, replicate 2: replicate column 2; for Bacterial growth relative to medium, M. luteus, replicate 3: replicate column 3
[2] = test system: Listeria monocytogenes DSM 20600; assay: Antibacterial growth assay (OD600); conditions: for Bacterial growth relative to medium, L. monocytogenes, replicate 1 / Bacterial growth relative to medium, L. monocytogenes, replicate 2 / Bacterial growth relative to medium, L. monocytogenes, replicate 3: OD600, medium = 100, MH II broth, 37 °C, peptide 200 µM mixed 50 µL + 50 µL with bacteria, Figure 7: 48 h; for Bacterial growth relative to medium, L. monocytogenes, replicate 1: replicate column 1; for Bacterial growth relative to medium, L. monocytogenes, replicate 2: replicate column 2; for Bacterial growth relative to medium, L. monocytogenes, replicate 3: replicate column 3
A/Hamburg/05/2009 (H1N1) = assay type: cell-based, influenza virus
[3] = test system: panel of seven bacterial strains; assay: Antibacterial growth assay (OD600), statements on the whole panel; assay type: cell-based; conditions: growth after 48 h
[4] = test system: Pseudomonas aeruginosa DSM 1117; assay: Antibacterial growth assay (OD600); conditions: OD600, medium = 100, MH II broth, 37 °C, peptide 200 µM mixed 50 µL + 50 µL with bacteria, Figure 7: 48 h; for Bacterial growth relative to medium, P. aeruginosa (1117), replicate 1: replicate column 1; for Bacterial growth relative to medium, P. aeruginosa (1117), replicate 2: replicate column 2; for Bacterial growth relative to medium, P. aeruginosa (1117), replicate 3: replicate column 3
[5] = test system: Escherichia coli BL21(DE3); assay: Antibacterial growth assay (OD600); conditions: for Bacterial growth relative to medium, E. coli, replicate 1 / Bacterial growth relative to medium, E. coli, replicate 2 / Bacterial growth relative to medium, E. coli, replicate 3: OD600, medium = 100, MH II broth, 37 °C, peptide 200 µM mixed 50 µL + 50 µL with bacteria, Figure 7: 48 h; for Bacterial growth relative to medium, E. coli, replicate 1: replicate column 1; for Bacterial growth relative to medium, E. coli, replicate 2: replicate column 2; for Bacterial growth relative to medium, E. coli, replicate 3: replicate column 3
Method: (§1) Cryo-conserved cultures of selected bacterial strains (Table 4) were transferred to Tryptic Soy Agar (TSA) plates (Carl Roth) with a sterile inoculation loop, sealed with Parafilm (BEMIS, Neenah, WI, USA), and incubated for 1–2 days at 37 °C depending on growth. Single colonies were picked and transferred into 2–3 mL of the Mueller–Hinton II (MH II) broth (BD, Heidelberg, Germany). The bacteria were cultivated overnight, subcultured on fresh medium and grown for 3–4 h before testing at 37 °C, with shaking at 180 rpm. We measured the optical density at 600 nm (OD600) of 1 mL of the bacterial suspensions in polystyrene cuvettes (SARSTED, Nümbrecht, Germany) using an Ultrospec 10 spectrophotometer (Biochrome, Cambridge, UK). We then diluted them with the MH II medium to the preferred OD600 (Table 2). The peptides were dissolved in DMSO to generate 10 mmol/L stocks and diluted with the MH II medium to 200 µM before the assay. We used 10 µg/mL (~40 µg/mL for S. epidermidis) gentamicin and colistin (Sigma-Aldrich, Taufkirchen, Germany), DMSO and the medium only as controls. The bacteria were transferred to 96-multiwell plates with a final volume of 100 µL per well (50 µL bacterial suspension, and 50 µL test peptide). The OD600 was measured at 0, 24 and 48 h using a BioTek Eon microplate reader followed by analysis with Gen5 v2.09.

[6] = test system: B/Malaysia/2506/2004 (B-Mal); assay type: cell-based, influenza virus
A/Hessen/1/2003 (H3N2) = assay type: cell-based, influenza virus
[7] = test system: Staphylococcus epidermidis DSM 28319; assay: Antibacterial growth assay (OD600); conditions: for Bacterial growth relative to medium, S. epidermidis, replicate 1 / Bacterial growth relative to medium, S. epidermidis, replicate 2 / Bacterial growth relative to medium, S. epidermidis, replicate 3: OD600, medium = 100, MH II broth, 37 °C, peptide 200 µM mixed 50 µL + 50 µL with bacteria, Figure 7: 48 h; for Bacterial growth relative to medium, S. epidermidis, replicate 1: replicate column 1; for Bacterial growth relative to medium, S. epidermidis, replicate 2: replicate column 2; for Bacterial growth relative to medium, S. epidermidis, replicate 3: replicate column 3
Method: as §1

[8] = test system: Pseudomonas aeruginosa DSM 50071; assay: Antibacterial growth assay (OD600); conditions: OD600, medium = 100, MH II broth, 37 °C, peptide 200 µM mixed 50 µL + 50 µL with bacteria, Figure 7: 48 h; for Bacterial growth relative to medium, P. aeruginosa (50071), replicate 1: replicate column 1; for Bacterial growth relative to medium, P. aeruginosa (50071), replicate 2: replicate column 2; for Bacterial growth relative to medium, P. aeruginosa (50071), replicate 3: replicate column 3
[9] = test system: Staphylococcus aureus DSM 2569; assay: Antibacterial growth assay (OD600); conditions: for Bacterial growth relative to medium, S. aureus, replicate 1 / Bacterial growth relative to medium, S. aureus, replicate 2 / Bacterial growth relative to medium, S. aureus, replicate 3: OD600, medium = 100, MH II broth, 37 °C, peptide 200 µM mixed 50 µL + 50 µL with bacteria, Figure 7: 48 h; for Bacterial growth relative to medium, S. aureus, replicate 1: replicate column 1; for Bacterial growth relative to medium, S. aureus, replicate 2: replicate column 2; for Bacterial growth relative to medium, S. aureus, replicate 3: replicate column 3

| Sequence | Insecticidal effect on larvae (in words) (G. mellonella larvae) | Antibacterial activity (in words) [1] | Bacterial growth relative to medium, M. luteus, replicate 1 [1] | Bacterial growth relative to medium, M. luteus, replicate 2 [1] | Bacterial growth relative to medium, M. luteus, replicate 3 [1] | Bacterial growth relative to medium, L. monocytogenes, replicate 1 [2] | Bacterial growth relative to medium, L. monocytogenes, replicate 2 [2] | Bacterial growth relative to medium, L. monocytogenes, replicate 3 [2] | Viability of infected cells relative to aprotinin, Replicate 1 (A/Hamburg/05/2009 (H1N1)) | Viability of infected cells relative to aprotinin, Replicate 2 (A/Hamburg/05/2009 (H1N1)) | Viability of infected cells relative to aprotinin, Replicate 3 (A/Hamburg/05/2009 (H1N1)) | Antibacterial activity over the panel (in words) [3] | Bacterial growth relative to medium, P. aeruginosa (1117), replicate 1 [4] | Bacterial growth relative to medium, P. aeruginosa (1117), replicate 2 [4] | Bacterial growth relative to medium, P. aeruginosa (1117), replicate 3 [4] | Bacterial growth relative to medium, E. coli, replicate 1 [5] | Bacterial growth relative to medium, E. coli, replicate 2 [5] | Bacterial growth relative to medium, E. coli, replicate 3 [5] | Viability of infected cells relative to aprotinin, Replicate 1 [6] | Viability of infected cells relative to aprotinin, Replicate 2 [6] | other results |
| --- | --- | --- | --- | --- | --- | --- | --- | --- | --- | --- | --- | --- | --- | --- | --- | --- | --- | --- | --- | --- | --- |
| LLDVVKSKIGQTGLL [LS-AMP-A16] | Individual dead insects | able to decrease the growth | 57.3268 | 84.1216 | 27.4989 | 81.5984 | 58.0902 | 20.8033 | 0.02774 | 0.02676 | 0.01877 | broad activity against all tested bacteria except P. aeruginosa DSM50071 | 71.8168 | 74.7999 | 64.6393 | 67.9376 | 59.8494 | 34.0285 | 0.002646 | 0.01088 | Antibacterial activity (in words) ([2]; L. monocytogenes DSM 20600, growth after 48 h): able to decrease the growth; Antibacterial activity (in words) ([5]; E. coli BL21(DE3), growth after 48 h): able to decrease the growth; Viability of infected cells relative to aprotinin, Replicate 3 [6]: 0.03862; Viability of infected cells relative to aprotinin, Replicate 1 (A/Hessen/1/2003 (H3N2)): 0.0324; Viability of infected cells relative to aprotinin, Replicate 2 (A/Hessen/1/2003 (H3N2)): 0.05366; Viability of infected cells relative to aprotinin, Replicate 3 (A/Hessen/1/2003 (H3N2)): 0.1082; Bacterial growth relative to medium, S. epidermidis, replicate 1 [7]: 52.6925; Bacterial growth relative to medium, S. epidermidis, replicate 2 [7]: 45.3012; Bacterial growth relative to medium, S. epidermidis, replicate 3 [7]: 72.1389; Antibacterial activity (in words) ([7]; S. epidermidis DSM 28319, growth after 48 h): able to decrease the growth; Bacterial growth relative to medium, P. aeruginosa (50071), replicate 1 [8]: 93.645; Bacterial growth relative to medium, P. aeruginosa (50071), replicate 2 [8]: 105.945; Bacterial growth relative to medium, P. aeruginosa (50071), replicate 3 [8]: 72.2488; Bacterial growth relative to medium, S. aureus, replicate 1 [9]: 50.7381; Bacterial growth relative to medium, S. aureus, replicate 2 [9]: 99.8365; Bacterial growth relative to medium, S. aureus, replicate 3 [9]: 66.4796; Antibacterial activity (in words) ([9]; S. aureus DSM 2569, growth after 48 h): able to decrease the growth |
| SLLGLLDVVKNTVGQT [LS-AMP-A10] | Individual dead insects | no activity | 61.1915 | 88.7389 | 35.3419 | 109.148 | 78.161 | 28.6946 | 0.0352 | 0.02417 | 0.03391 | inhibited the growth of most of the bacteria except two | 65.0772 | 90.1148 | 64.0892 | 81.6291 | 64.3105 | 57.0069 | 0.07328 | 0.09773 | Viability of infected cells relative to aprotinin, Replicate 3 [6]: 0.07183; Viability of infected cells relative to aprotinin, Replicate 1 (A/Hessen/1/2003 (H3N2)): 0.05441; Viability of infected cells relative to aprotinin, Replicate 2 (A/Hessen/1/2003 (H3N2)): 0.1761; Viability of infected cells relative to aprotinin, Replicate 3 (A/Hessen/1/2003 (H3N2)): 0.1729; Viability of infected cells relative to aprotinin, Replicate 4 (A/Hessen/1/2003 (H3N2); […], replicate 4 (additional internal control)): 0.1942; Bacterial growth relative to medium, S. epidermidis, replicate 1 [7]: 79.4001; Bacterial growth relative to medium, S. epidermidis, replicate 2 [7]: 71.0012; Bacterial growth relative to medium, S. epidermidis, replicate 3 [7]: 83.073; Bacterial growth relative to medium, P. aeruginosa (50071), replicate 1 [8]: 97.2952; Bacterial growth relative to medium, P. aeruginosa (50071), replicate 2 [8]: 110.352; Bacterial growth relative to medium, P. aeruginosa (50071), replicate 3 [8]: 83.9978; Bacterial growth relative to medium, S. aureus, replicate 1 [9]: 64.1206; Bacterial growth relative to medium, S. aureus, replicate 2 [9]: 64.9771; Bacterial growth relative to medium, S. aureus, replicate 3 [9]: 91.1709 |
